In patent US20150164762A1, “USE OF ETHANOLAMINE PHOSPHATE” (priority 2012, published 2015):

How the values were obtained:
BEAS-2B cells = assay: WST-8 proliferation test, BEAS-2B cells at different FBS concentrations; format: cell-based, human
Method: 10% FBS RPMI-1640 was used as the medium. […] Following medium replacement, 10 μl/well of EP solution was added. A proliferation test (WST-8 assay) was performed after 96 hours. The operations of the WST-8 assay were as follows.
(1) The medium was removed from the 96-well plate by decantation and tapping.
(2) WST-8 reagent (Dojindo) was mixed to a ratio of 1:10 with serum-free medium (RPMI-1640) that had been warmed in advance at 37° C., and added to the wells from which the medium had been removed.
(3) A color reaction was performed for 1 hour in a CO2 incubator, and absorbance at 450 nm and 650 nm was measured with an absorbance plate reader.
(4) Absorbance at 450 nm-absorbance at 650 nm was calculated for purposes of correction between plates.
(5) The average of the 4 blank wells was subtracted from the corrected value of all wells, and the result was given as the relative corresponding cell number.

HBEpC cells = assay: WST-8 proliferation test, primary normal human airway epithelial cells (HBEpC); format: cell-based
Method: BEGM (Takara Bio, complete medium) was used as the medium. […] Following medium replacement, 10 μl per well of an EP solution of 10 times the set concentration was added, and after 96 hours a proliferation test (WST-8 assay) was performed.

NHLF cells = assay: WST-8 proliferation test, primary normal human lung fibroblasts (NHLF); format: cell-based; settings: 0% FBS DMEM, 124 hours
Description: 10% FBS-DMEM was used as the medium.

THP-1 = assay: WST-8 proliferation test, THP-1 floating cells; format: cell-based, human; settings: 0% FBS, 72 hours, high concentrations of 125 μM or more
Method: THP-1 (human acute monocytic leukemia cells) and HL-60 (human myeloid leukemia cells) were logarithmically growth cultured in 10% FBS RPMI-1640 to 2 to 10×10^5 cells/cm^2 to achieve logarithmic growth before EP administration. The cell culture liquid was then centrifuged and precipitated at 1000 rpm, and 90 μl per well was dispensed onto a 96-well plate to 2×10^4 cells/cm^2 in 0% FBS RPMI-1640. […] For the WST-8 assay of the floating cells, 10 μl per well of WST-8 assay reagent was added directly to the cell suspension during culture, and after 1 hour absorbance at 450 nm and 600 nm was measured with a plate reader and the data were analyzed as in the examples above.

BEAS-2B [1] = assay: Suppression of the proliferative effect of EP by a MEK 1/2 inhibitor (WST-8); format: cell-based, human; settings: 250 μM EP, no MEK 1/2 inhibitor, 0.1% FBS, 72 hours
BEAS-2B [2] = assay: Proliferative effects of EP and its metabolic derivatives (WST-8); format: cell-based, human; settings: 0.1% FBS, 72 hours
caspase 3/7 = assay: Serum-free stress-induced caspase 3/7 activity (Caspase-Glo3/7 assay) per cell; format: cell-based, human; settings: 0% FBS, 24 hours
Method: After medium replacement, 10 μl per well of EP or FBS solution was added. After 24 hours, a proliferation test (WST-8 assay) and caspase 3/7 assay (Caspase-Glo3/7 assay, Promega) were performed. […] Caspase 3/7 activity was measured by a luminescence test, the blank average was subtracted, and this was divided by the corrected absorbance (corresponding to relative cell number) from the WST-8 assay to calculate the caspase 3/7 activity per cell.

BEAS-2B [3] = assay: Transepithelial electrical resistance (TER), BEAS-2B; format: cell-based, human; settings: EP 1 mM, 1% FBS
Method: (§1) Cells of the established normal human airway epithelial cell line BEAS-2B were seeded to 1×10^5 cells/cm^2 on a cell culture insert (353104, BD Falcon) (FIG. 14). 10% FBS RPMI-1640 was used as the medium. The amount of medium was 200 μl on the insert side and 750 μl on the well side. Beginning the next day, substitution/medium replacement was performed once a day with 1% FBS RPMI-1640 prepared with the following 4 reagent conditions, and transepithelial electrical resistance (TER) was measured with MilliCell (Millipore). • Condition 1: Control • Condition 2: EP 1 mM • Condition 3: Dexamethasone 1 μM (dexamethasone (Dex): positive control substance known to enhance barrier function) • Condition 4: EP 1 mM and Dex 1 μM

BEAS-2B [4] = assay: Permeability test, 4-kilodalton fluorescent dextran through BEAS-2B cell sheet (Papp); format: cell-based, human; settings: EP 1 mM, 7 days after seeding
Method: as §1
7 days after cell seeding a permeability test was performed as follows.
A 4-kilodalton fluorescent dextran molecule (Sigma) was added to the cell culture insert to a concentration of 0.1 mg/ml, 20 μl of the medium on the well side was removed after 1 hour, and the amount of permeating fluorescent dextran was estimated from the fluorescent strength at each concentration. The permeation rate Papp of a substance from the insert side to the well side is normally determined by the following formula.
Papp=(volume of medium on well side/insert area×initial insert concentration)×(altered concentration on well side/elapsed time)

Calu-3 cells = assay: Transepithelial electrical resistance (TER), Calu-3; format: cell-based, human; settings: 1 mM EP, 0.1% FBS
Method: Calu-3 cells were seeded to 3×10^5 cells/cm^2 on a cell culture insert (353104, BD Falcon). They were cultured until confluent in 10% FBS RPMI-1640, and once confluence was reached, 0.1% FBS RPMI-1640 containing the following was substituted, and the medium was replaced every day. TER was measured as in Example 11. The results are shown in FIG. 15. • Condition 1: Control • Condition 2: 1 μM dexamethasone • Condition 3: 1 mM EP

HEKa cells = assay: Transepithelial electrical resistance (TER), HEKa; format: cell-based, human; settings: 1 mM EP
Method: HEKa cells were seeded to 6×10^4 cells/cm^2 on a cell culture insert (353104, BD Falcon). Culture was performed in complete medium consisting of HKGS Kit (S-001-K, Invitrogen) added to Epilife basal medium (M-EPI-500-CA, Invitrogen), and once confluence was reached, a medium containing […] the specific compounds listed under Conditions 1 to 3 above was substituted for the complete medium, and medium replacement was performed once a day. TER was measured as in Example 11.

## NCCOP(=O)(O)O [EP, Ethanolamine phosphate]
BEAS-2B cells; 0-0.5% FBS, 96 hours
  proliferation of BEAS-2B cells: dependent on EP concentration
BEAS-2B cells; high-concentration range (mM level)
  toxicity attributable to EP: no obvious toxicity
BEAS-2B cells; medium contains no FBS, 96 hours
  cell proliferation, ratio relative to control using 0 μM EP: ≤ 11 times
HBEpC cells; 7 μM, BEBM basal medium, 96 hours
  growth-stimulating effect: roughly two-fold
HBEpC cells; mM level
  toxicity: no toxicity
NHLF cells
  growth-stimulating effect: growth-stimulating effect
THP-1
  cell proliferation effect: small cell proliferation effect
BEAS-2B [1]
  cell proliferation: roughly 3 fold
BEAS-2B [2]
  proliferative action: dose-dependent proliferative action
Caspase 3/7
  FBS concentration whose effect EP 1000 μM corresponds to (regression curve): 2.2%
Caspase 3/7; 1000 μM
  caspase 3/7 activity per cell: about 0.72 fold
BEAS-2B [3]
  increase in TER: 49%
BEAS-2B [4]
  permeation rate Papp of fluorescent dextran, lower than control: 25%
Calu-3 cells
  rise in TER value relative to the control: 2.0 fold
HEKa cells
  rise in TER value relative to the control: 2.3 fold
